According to paper PMC6934184, “Selective DNA-PKcs inhibition extends the therapeutic index of localized radiotherapy and chemotherapy” (The Journal of Clinical Investigation, 2019):

Target: T1, DDR2 N456S (Homo sapiens, UniProt Q16832, N456S)
T1 construct: purchased Thermo Fisher Scientific (Life Technologies) SelectScreen
Test: SelectScreen LanthaScreen
Assay type: binding
Conditions: read-out: % displacement
Outline: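 Percent values come from Thermo SelectScreen profiling of NU5455, combining activity and binding assays. CSF1R was run in Z'LYTE format at Km app ATP, and CAMK1 in Adapta format with ATP listed at 10.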

T1 sequence (Q16832 22-855 N456S): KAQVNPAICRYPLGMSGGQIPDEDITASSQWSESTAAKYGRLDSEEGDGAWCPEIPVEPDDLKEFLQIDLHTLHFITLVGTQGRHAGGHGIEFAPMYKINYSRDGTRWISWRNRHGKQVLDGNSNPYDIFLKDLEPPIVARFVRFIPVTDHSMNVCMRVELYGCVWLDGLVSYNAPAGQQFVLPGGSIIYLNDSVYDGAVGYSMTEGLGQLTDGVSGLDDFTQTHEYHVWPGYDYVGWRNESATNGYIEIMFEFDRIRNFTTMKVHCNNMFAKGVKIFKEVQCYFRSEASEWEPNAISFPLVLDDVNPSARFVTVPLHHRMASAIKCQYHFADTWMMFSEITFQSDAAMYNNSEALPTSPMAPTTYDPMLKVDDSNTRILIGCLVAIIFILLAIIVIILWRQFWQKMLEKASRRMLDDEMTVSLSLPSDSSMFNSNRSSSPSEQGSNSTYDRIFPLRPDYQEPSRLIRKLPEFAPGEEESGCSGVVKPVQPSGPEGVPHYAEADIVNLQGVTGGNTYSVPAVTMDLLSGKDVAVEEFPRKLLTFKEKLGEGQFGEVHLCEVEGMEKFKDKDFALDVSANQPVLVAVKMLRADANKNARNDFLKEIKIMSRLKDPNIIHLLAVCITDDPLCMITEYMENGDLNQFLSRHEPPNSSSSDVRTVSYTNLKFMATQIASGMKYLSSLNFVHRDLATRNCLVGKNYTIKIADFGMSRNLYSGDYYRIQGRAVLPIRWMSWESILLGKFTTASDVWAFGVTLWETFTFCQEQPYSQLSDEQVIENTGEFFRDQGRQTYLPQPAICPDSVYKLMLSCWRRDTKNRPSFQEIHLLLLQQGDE

`CN(C(=O)CN1CCOCC1)c1ccc2sc3c(-c4cccc5c(=O)cc(N6CC7CCC(C6)O7)oc45)cccc3c2c1` [NU5455] gave an inhibition at 1 µM of 0.5%.
